Source: US20250228857A1, “BIOSENSOR AND USES THEREOF” (The Johns Hopkins University, priority 2022, published 2025)
Where two headings read alike, the source gives them in different places.

Tests used:
[1] = in vivo; cited from earlier work
NRVMs = assay: NRVM cell viability after 48 hour compound incubation; assay type: cell-based, rat; conditions: 48-hour exposure
Description: FIGS. 3A-3H show which drugs in clinical use inhibit CaMKII in cardiac cells. (FIG. 3A) Fluorescence imaging timelapse of CaMKAR expressing neonatal rat ventricular cardiomyocytes (NRVMs) and (FIG. 3B) summary data during 3 Hz field pacing (n=1,065-1,160 cells). R/R0=R normalized to mean R prior to stimulation. Scale bar=50 μm. […] CaMKII inhibition % defined by min-max normalization between untreated and maximally stimulated CaMKAR signal. […] (FIG. 3E) Summary data from D at 60 seconds post stimulation. […] (FIG. 3H) Cell viability after 48 hour compound incubation. All measurements are taken from >3 biological replicates. ns=p>0.05, ****p<0.0001; significance determined via one-way ANOVA and Dunnett's multiple comparisons test (FIGS. 3C,3 E); two-way ANOVA and Tukey's multiple comparisons test (FIG. 3F).
Rat hippocampal neurons were cultured as previously described (38).

293T cells = assay: Cell viability in 293T cells (CellTiter-Glo 2.0); conditions: 12-hour exposure
CREM-IbAC-X mice = assay: Spontaneous atrial fibrillation in CREM-IbAC-X mice; assay type: in vivo, mouse; conditions: 75 mg/kg i.p., 10 minutes after treatment
Description: (§1) (FIG. 7A) Representative type 1 diabetic mouse tracings immediately after atrial burst pacing. […] (FIG. 7B) Atrial fibrillation (AF) inducibility percentage from mice in FIG. 7A. Number of mice analyzed per group shown in each column: 9/16 vehicle treated mice had AF vs. 2/15 Rux-treated mice. (FIG. 7C) Sequential atrial fibrillation (AF) inducibility in OGT-transgenic mice. […] Number of mice analyzed per group shown in each column (Vehicle=5/5 had AF, Rux=1/5 had AF). […] Statistical comparisons were performed using 2-tailed Fischer's exact test (FIGS. 7B, 7C); two-way ANOVA with Sidak's multiple comparison's test (FIG. 7D); paired Student's T-test (FIG. 7E); *p<0.05, ****p<0.0001.
Spontaneous AF. 8-months-old CREM-IbAC-X mice were monitored via surface ECG for 15 minutes to establish the baseline for time spent in atrial fibrillation (AF). AF was defined as loss of p-waves and irregularly irregular R-R intervals for >10 seconds. Each mouse was monitored at least twice with more than 24 hours interval between two recordings. After establishing the baseline, the mice were injected with placebo (10% DMSO, 2.5% Tween-20 in saline; i.p. injections) and the 15-minute ECGs were recorded between 10-25 minutes post injection.

C57BL/6J mice [2] = assay: Barnes maze; assay type: in vivo, mouse; conditions: 150 mg/kg/day
Experimental: (FIG. 20B) Latency to escape the Barnes maze during the probe trial (day 6). There was no significant deficit in ruxolitinib (Rux) treated mice over vehicle (Veh). Datapoints represent individual mice. (FIGS. 20C-20E) Latency to escape maze, primary errors, and total errors of mice subjected to Barnes maze during the 4 training trials. Statistical testing shown below each graph with proportion and significance of variance by each parameter. Data shown as mean±SEM. Significance was determined via Student's T-test (FIG. 20B), or two-way ANOVA (FIGS. 20C-20E).
For the Barnes maze: A brightly lit (1100 lux) Barnes maze with 20 evenly spaced holes and an escape box placed under one of the holes was used (Maze Engineers). During training, each mouse was placed in the center of the maze and allowed to explore the maze for 3 minutes per trial. During the trial, the number of head dips and the latency to find and then enter the escape box were recorded. Mice were given two trials per day for four days. 24 hours following training, mice were given a probe trial, with the number of head dips and latency to find and then enter the escape box recorded.

C57BL/6J mice [3] = assay: Y maze spatial recognition memory test; assay type: in vivo, mouse
[4] = rats; cited from earlier work
[5] = in vivo; cited from earlier work; remark: listed apart in the source
C57BL/6J mice [6] = assay: Novel object recognition test (NORT); assay type: in vivo, mouse; conditions: 75 or 41 mg/kg; single dose 1 hour prior or twice daily for 7 days
[7] = system: WT and RyR2^R176Q/WT mice; assay: ECG heart rate and electrophysiologic parameters in WT and RyR2^R176Q/WT mice
OGT-transgenic mice = assay: Sequential atrial fibrillation inducibility in OGT-transgenic mice; assay type: in vivo, mouse; conditions: 75 mg/kg prior to second pacing
Description: as §1
75 mg/kg dosing was chosen due to previous studies determining this dose to be equivalent to the 20-25 mg dose in humans based on plasma concentration (47-49). In vivo electrophysiology (EP) studies were performed as previously reported (57) in mice anesthetized with isoflurane (2% for induction and 1.5% for maintenance of anesthesia; Isotec 100 Series Isoflurane Vaporizer; Harvard Apparatus). AF was defined as the occurrence of rapid and fragmented atrial electrograms with irregular AV-nodal conduction and ventricular rhythm for at least 1 second. If 1 or more atrial bursts (out of 5) were an AF episode, the mouse was considered to have inducible AF. […]

[8] = cited from earlier work
type 1 diabetic mice = assay: Atrial fibrillation induction by atrial burst pacing in type 1 diabetic mice; assay type: in vivo, mouse; conditions: 75 mg/kg i.p. single dose 10 minutes prior
Description: as §1
Diabetic Mouse Model. Type-1 diabetes (T1D) was induced as previously described (57) in adult male C57BL/6J mice (The Jackson Laboratory, ME, USA) by a single intraperitoneal injection of streptozotocin (STZ)(185 mg/kg, Sigma-Aldrich) dissolved in a citrate buffer (citric acid and sodium citrate, pH 4.0) after a six hour fast. Mice were maintained on normal chow diet (NCD) (7913 irradiated NIH-31 modified 6% mouse/rat diet—15 kg, Envigo, Indianapolis, TN). Mice were considered diabetic if blood glucose level was ≥300 mg/dl via tail vein blood checked with a glucometer—OneTouch Ultra 2 (LifeScan, Zug, Switzerland). […]

[9] = long-term ruxolitinib, median exposures 11.1 and 34.4 months

N#CC[C@H](C1CCCC1)n1cc(-c2ncnc3[nH]ccc23)cn1 [ruxolitinib]
maximum human plasma concentration [1]: 1.51 µM | well tolerated concentration (NRVMs): up to 100 μM | toxicity compared with AS100397 (293T cells): less toxic | percent time in AF (CREM-IbAC-X mice): 33.63% | latency, primary errors, and total errors during training trials (C57BL/6J mice [2]): no significant effect | maze solving latency at study endpoint (probe trial) (C57BL/6J mice [2]; day 6): no difference | decreased preference for the novel arm (C57BL/6J mice [3]; higher dose single dosing and both multiple dosing cohorts): not seen | preference for the novel arm (C57BL/6J mice [3]; single dosing, lower dose (41 mg/kg)): decreased preference for the novel arm | plasma concentration over brain concentration [4]: 29 fold | CNS penetrance [5]: 3.5% (64) | novel object recognition, percent time spent with the novel object (C57BL/6J mice [6]): Neither single dose (1 hour prior) nor multiple doses (twice daily for 7 days) of ruxolitinib (75 or 41 mg/kg) caused significant differences in novel object recognition | PR ([7]; RyR^R176Q/WT mice, Baseline): 39.5 ± 1 ms | QTc ([7]; RyR^R176Q/WT mice, Baseline): 36.5 ± 5 ms | PR ([7]; RyR^R176Q/WT mice, EPI): 42.2 ± 4 ms | QTc ([7]; RyR^R176Q/WT mice, EPI): 49.5 ± 4 ms | PR ([7]; RyR^R176Q/WT mice, ISO): 43.1 ± 3 ms | QTc ([7]; RyR^R176Q/WT mice, ISO): 51.6 ± 5 ms | PR ([7]; WT mice, Baseline): 43.4 ± 4 ms | QTc ([7]; WT mice, Baseline): 48.6 ± 6 ms | PR ([7]; WT mice, EPI): 45.9 ± 2.7 ms | QTc ([7]; WT mice, EPI): 55.7 ± 8 ms | PR ([7]; WT mice, ISO): 43.8 ± 4 ms | QTc ([7]; WT mice, ISO): 49.2 ± 4 ms | mice with AF / mice analyzed (OGT-transgenic mice): 1/5 | Maximum dose used in humans ([8]; FDA-approved): 25 mg BID (96) | Maximum dose used in humans ([8]; Healthy volunteers): 200 mg QD (76) | well-tolerated dose ([8]; healthy volunteers, short-term dosing): up to 200 mg | patients discontinuing treatment due to anemia [8, 9]: < 2.6% | patients discontinuing treatment due to thrombocytopenia [8, 9]: < 3.6% | cognitive deficits in patients ([8]; prescribed for over a decade): without reported overt cognitive deficits | mice with AF / mice analyzed (type 1 diabetic mice): 2/15
